System: relapsing-remitting multiple sclerosis
Assay: Multiple Sclerosis Functional Composite (PASAT3, 9-hole peg, 25-foot walk)
Type: in vivo, human
Parameters: PASAT3 score, Mean ± SD / PASAT3 score, Median / PASAT3 score change from baseline, Mean ± SD / PASAT3 score change from baseline, Median: scale not given here; 25-foot Walk Time change from baseline, Mean ± SD / 25-foot Walk Time change from baseline, Median: unit not given here
Excerpt: Tertiary end points included gray matter atrophy on MRI, and changes in results from baseline on questionnaires including the Modified Fatigue Impact Scale, Beck Depression Inventory, and MS Quality of Life. Mixed effects negative binomial regression model and linear mixed effects model were used to compare enhancing lesion volume (log-transformed) between treatment groups at all follow-ups, and mixed effects logistic model was used to compare the number of subjects positive for gadolinium enhancing lesions. Linear mixed effects model was carried out to compare the percent change in whole gray matter and cortical gray matter between treatment groups. […] Mixed effects models were used to assess the association among outcomes and estriol levels at all follow-ups and using subjects in both treatment groups. Mixed effects logistic regression model was used to evaluate the association between the number of enhancing lesions and the occurrence of relapse at all follow-up intervals. Linear mixed effects model was carried out to evaluate the association between PASAT change and percent brain volume change, as well as between PASAT change and estriol levels.

[1] = Month 24 (second line, N = 60 / 55)
[2] = Month 24 as printed (first of two lines, N = 70 / 60)
[3] = Patients with baseline score <55, Baseline
[4] = Patients with baseline score <55, Month 12
[5] = Patients with baseline score <55, Month 24

glatiramer acetate [Placebo + GA]
PASAT3 score, Mean ± SD (All patients, Baseline): 52.3 ± 9.1 | PASAT3 score, Median (All patients, Baseline): 56 | PASAT3 score % change from baseline, Mean ± SD (All patients, Month 12): 0.8 ± 9.9% | PASAT3 score % change from baseline, Median (All patients, Month 12): 0% | PASAT3 score change from baseline, Mean ± SD (All patients, Month 12): 0.1 ± 4.5 | PASAT3 score change from baseline, Median (All patients, Month 12): 0 | PASAT3 score % change from baseline, Mean ± SD (All patients, Month 24): 2.7 ± 10.3% | PASAT3 score % change from baseline, Median (All patients, Month 24): 0% | PASAT3 score change from baseline, Mean ± SD (All patients, Month 24): 1.1 ± 4.3 | PASAT3 score change from baseline, Median (All patients, Month 24): 0 | 9-Hole Peg Test, Mean ± SD (Baseline): 19.1 ± 2.7 | 9-Hole Peg Test, Median (Baseline): 18.8 | 25-foot Walk Time, Median (Baseline): 4.5 s | MSFC Score, Mean ± SD (Baseline): 0.06 ± 0.79 | MSFC Score, Median (Baseline): 0.24 | 25-foot Walk Time, Mean ± SD (Baseline, in s (unit assumed)): 4.9 ± 1.5 | 9-Hole Peg Test change from baseline, Mean ± SD (Month 12): −0.1 ± 1.8 | 9-Hole Peg Test change from baseline, Median (Month 12): −0.4 | MSFC Score change from baseline, Mean ± SD (Month 12): 0.06 ± 0.38 | 9-Hole Peg Test change from baseline, Mean ± SD (Month 24): −0.4 ± 1.5 | 9-Hole Peg Test change from baseline, Median (Month 24): −0.5 | MSFC Score change from baseline, Mean ± SD (Month 24): 0.09 ± 0.43 | 25-foot Walk Time change from baseline, Mean ± SD [1]: 0.1 ± 1.1 | 25-foot Walk Time change from baseline, Median [1]: 0.1 | 25-foot Walk Time change from baseline, Mean ± SD [2]: 0.0 ± 0.9 | 25-foot Walk Time change from baseline, Median [2]: 0.0 | PASAT3 score, Mean ± SD [3]: 44.7 ± 9.1 | PASAT3 score, Median [3]: 49 | PASAT3 score % change from baseline, Mean ± SD [4]: 4.0 ± 14.0% | PASAT3 score % change from baseline, Median [4]: 3.8% | PASAT3 score change from baseline, Mean ± SD [4]: 1.6 ± 6.0 | PASAT3 score change from baseline, Median [4]: 1.0 | PASAT3 score % change from baseline, Mean ± SD [5]: 6.9 ± 14.7% | PASAT3 score % change from baseline, Median [5]: 9.1% | PASAT3 score change from baseline, Mean ± SD [5]: 3.0 ± 5.9 | PASAT3 score change from baseline, Median [5]: 4.0
